Test results: patent US9850283B2, “Macrocyclic inhibitors of the PD-1/PD-L1 and CD80(B7-1)/PD-L1 protein/protein interactions” (BRISTOL-MYERS SQUIBB COMPANY, priority 2013, dated 2017)
Read-outs that look alike come from different tables or passages of the source. Starred links: 1 amine or outer side, 2 acyl side, 3 side chain; linkers in the order of their positions; H or OH if unused. Positions of bridges follow the written chain, without caps; N, C: chain ends. Non-standard residues stand in square brackets, D forms with d. Residues, ends and D or L forms follow the SMILES beside them. ξ: configuration not given here. X19 = CCCOc1cccc(-c2[nH]c3ccccc3c2C[C@H](N[*:1])C(=O)[*:2])c1; Phe(3,4-Cl2) = N[C@@H](Cc1ccc(Cl)c(Cl)c1)C(=O)O; Phe(4-tBu) = CC(C)(C)c1ccc(C[C@H](N)C(=O)O)cc1; Phe(3,5-F2) = N[C@@H](Cc1cc(F)cc(F)c1)C(=O)O; Phe(4-CN) = N#Cc1ccc(C[C@H](N)C(=O)O)cc1; Phe(4-Cl) = N[C@@H](Cc1ccc(Cl)cc1)C(=O)O; Bta = N[C@@H](Cc1csc2ccccc12)C(=O)O; Hyp = O=C(O)[C@@H]1C[C@@H](O)CN1; 2Pal = N[C@@H](Cc1ccccn1)C(=O)O; NMeNle = CCCC[C@H](NC)C(=O)O; NMeM = CN[C@@H](CCSC)C(=O)O; ξR = N=C(N)NCCCC(N)C(=O)O; NMeA = CN[C@@H](C)C(=O)O; Dap = NC[C@H](N)C(=O)O; ξC = NC(CS)C(=O)O; Sar = CNCC(=O)O

What was measured:
[1] = target: T1, Human PD-L1/PD-1 (Homo sapiens, UniProt Q9NZQ7); test: HTRF PD-1-Ig/PD-L1-His binding assay (human PD-L1); details: cluster symbol; read-out: HTRF IC50 cluster
T1 construct: made in house; host or cells: HEK293T
T1 sequence (Q9NZQ7 with tags, fused parts or gaps): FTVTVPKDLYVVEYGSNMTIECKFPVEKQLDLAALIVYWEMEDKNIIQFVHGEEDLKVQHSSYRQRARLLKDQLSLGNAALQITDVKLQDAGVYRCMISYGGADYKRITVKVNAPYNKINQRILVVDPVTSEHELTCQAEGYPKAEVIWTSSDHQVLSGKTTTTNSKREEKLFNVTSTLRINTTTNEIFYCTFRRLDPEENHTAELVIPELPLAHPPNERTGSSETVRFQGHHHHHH
How it was run: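 Readout: time-resolved FRET between Eu cryptate-labeled anti-Ig (1 nM final) and APC-labeled anti-His (20 nM final) antibodies. These detect interaction of Fc-fused PD-1 with His-tagged human PD-L1 in dPBS containing 0.1% BSA and 0.05% Tween-20.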

[2] = target: T2, LK35.2-hPD-L1 cells / PE-labeled PD-1-Ig (Homo sapiens, UniProt Q9NZQ7); test: LK35.2-hPD-L1 cell binding high-content screening assay; format: cell-based; details: cluster symbol, read-out: CBA IC50 cluster
T2 construct: expressed in transfected cells; host or cells: LK35.2 mouse B cell line
T2 sequence (Q9NZQ7 19-290): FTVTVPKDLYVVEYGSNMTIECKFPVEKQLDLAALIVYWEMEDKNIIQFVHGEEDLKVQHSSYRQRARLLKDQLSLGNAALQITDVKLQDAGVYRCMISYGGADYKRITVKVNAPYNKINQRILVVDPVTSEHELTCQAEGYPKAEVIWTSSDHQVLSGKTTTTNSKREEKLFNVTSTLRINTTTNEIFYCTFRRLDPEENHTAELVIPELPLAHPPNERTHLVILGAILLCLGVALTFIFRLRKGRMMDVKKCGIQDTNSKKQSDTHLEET
How it was run: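 Using overnight-cultured LK35.2-hPD-L1 mouse B cells, compound was co-incubated with phycoerythrin-tagged human PD-1-Ig (final 1 nM) at 37 °C for one hour. Unbound label was removed by triple dPBS washing prior to high-content image acquisition and analysis.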

[3] = cell binding assay, cell line not given
[4] = cell line of CBA not given (LK35.2-hPD-L1 or 293T-hPD-L1)

| Compound | IC50 [1] | IC50 [2, 3] | IC50 [2, 4] |
| --- | --- | --- | --- |
| CCCC[C@H]1C(=O)N(C)[C@@H](CCCC)C(=O)N[C@@H](CCCNC(=N)N)C(=O)N[C@H](C(=O)NCC(=O)NCC(N)=O)CSCC(=O)N[C@@H](Cc2ccc(O)cc2)C(=O)N(C)[C@@H](C)C(=O)N[C@@H](CC(N)=O)C(=O)N2CCC[C@H]2C(=O)N[C@@H](Cc2cnc[nH]2)C(=O)N[C@@H](CC(C)C)C(=O)N2C[C@H](O)C[C@H]2C(=O)N[C@@H](Cc2c[nH]c3ccccc23)C(=O)N[C@@H](CO)C(=O)N[C@@H](Cc2c[nH]c3ccccc23)C(=O)N1C [Example 6017] ({CH2CO}-Y[NMeA]NPHL[Hyp]WSW[NMeNle][NMeNle]RCGG-NH2; thioether N-14) | 0.385 to 6.74 nM | 0.158 to 4.71 nM |  |
| CCCC[C@H]1C(=O)N(C)[C@@H](CCCC)C(=O)NC(CCCNC(=N)N)C(=O)N[C@H](C(=O)NCC(N)=O)CSCC(=O)N[C@@H](Cc2ccc(O)cc2)C(=O)N(C)[C@@H](C)C(=O)N[C@@H](CC(N)=O)C(=O)N2CCC[C@H]2C(=O)N[C@@H](CN)C(=O)N[C@@H](CC(C)C)C(=O)N2C[C@H](O)C[C@H]2C(=O)N[C@@H](Cc2c[nH]c3ccccc23)C(=O)N[C@@H](CO)C(=O)N[C@@H](Cc2c(-c3cccc(OCCC)c3)[nH]c3ccccc23)C(=O)N1C (some centres unmarked) [Example 7004] ({CH2CO}-Y[NMeA]NP[Dap]L[Hyp]WS[X19][NMeNle][NMeNle][ξR]CG-NH2; thioether N-14) | 0.385 to 6.74 nM | 4.78 to 72.9 nM |  |
| CCCC[C@H]1C(=O)N(C)[C@@H](CCCC)C(=O)N[C@@H](CCCNC(=N)N)C(=O)N[C@H](C(=O)NCC(N)=O)CSCC(=O)N[C@@H](Cc2ccc(C(C)(C)C)cc2)C(=O)N(C)[C@@H](C)C(=O)N[C@@H](CC(N)=O)C(=O)N2CCC[C@H]2C(=O)N[C@@H](Cc2cnc[nH]2)C(=O)N[C@@H](CC(C)C)C(=O)N2C[C@H](O)C[C@H]2C(=O)N[C@@H](Cc2c[nH]c3ccccc23)C(=O)N[C@@H](CO)C(=O)N[C@@H](Cc2c[nH]c3ccccc23)C(=O)N1C [Example 7045] ({CH2CO}-[Phe(4-tBu)][NMeA]NPHL[Hyp]WSW[NMeNle][NMeNle]RCG-NH2; thioether N-14) | > 30.5 nM | > 74.3 nM |  |
| CCCC[C@H]1C(=O)N(C)[C@@H](CCCC)C(=O)N[C@@H](CCCNC(=N)N)C(=O)N[C@H](C(=O)NCC(N)=O)CSCC(=O)N[C@@H](Cc2ccccc2)C(=O)N(C)[C@@H](C)C(=O)N[C@@H](CC(N)=O)C(=O)N2CCC[C@H]2C(=O)N[C@@H](Cc2cnc[nH]2)C(=O)N[C@@H](CC(C)C)C(=O)NC(C)(C)C(=O)N[C@@H](Cc2c[nH]c3ccccc23)C(=O)N[C@@H](CO)C(=O)N[C@@H](Cc2c[nH]c3ccccc23)C(=O)N1C [Example 1110] | > 30.5 nM |  | > 74.3 nM |
| CCCC[C@H]1C(=O)N(C)[C@@H](CCCC)C(=O)N[C@@H](CCCNC(=N)N)C(=O)N[C@H](C(=O)NCC(N)=O)CSCC(=O)N[C@@H](Cc2ccc(Cl)cc2)C(=O)N(C)[C@@H](C)C(=O)N[C@@H](CC(N)=O)C(=O)N2CCC[C@H]2C(=O)N[C@@H](Cc2cnc[nH]2)C(=O)N[C@@H](CC(C)C)C(=O)N2CCC[C@H]2C(=O)N[C@@H](Cc2c[nH]c3ccccc23)C(=O)N[C@@H](CO)C(=O)N[C@@H](Cc2c[nH]c3ccccc23)C(=O)N1C [Example 1117] ({CH2CO}-[Phe(4-Cl)][NMeA]NPHLPWSW[NMeNle][NMeNle]RCG-NH2; thioether N-14) | 6.76 to 30.3 nM |  | 4.78 to 72.9 nM |
| CCCC[C@H]1C(=O)N(C)CC(=O)N[C@@H](CC(=O)O)C(=O)N[C@@H](C(C)C)C(=O)N(C)[C@@H](Cc2ccccc2)C(=O)N[C@@H](Cc2ccc(O)cc2)C(=O)N(C)CC(=O)N[C@@H](Cc2c[nH]c3ccccc23)C(=O)N[C@@H](Cc2ccc(O)cc2)C(=O)N[C@@H](CCC(=O)O)C(=O)N[C@H](C(=O)NCC(N)=O)CSCC(=O)N[C@@H](Cc2ccccc2)C(=O)N(C)[C@@H](Cc2ccccc2)C(=O)N1C [Example 3509] (HELM PEPTIDE1{[O=C(C[*:3])[*:2]].F.[meF].[CCCC[C@@H](C(=O)[*:2])N(C)[*:1]].[Sar].D.V.[meF].Y.[Sar].W.Y.E.C.G.[am]}$PEPTIDE1,PEPTIDE1,1:R3-14:R3$$$V2.0) | 6.76 to 30.3 nM | > 74.3 nM |  |
| CCCC[C@H]1C(=O)N(C)[C@@H](CCCC)C(=O)N[C@@H](CCCNC(=N)N)C(=O)N[C@H](C(=O)NCC(N)=O)CSCC(=O)N[C@@H](Cc2ccccn2)C(=O)N(C)[C@@H](C)C(=O)N[C@@H](CC(N)=O)C(=O)N2CCC[C@H]2C(=O)N[C@@H](Cc2c[nH]cn2)C(=O)N[C@@H](CC(C)C)C(=O)N2C[C@H](O)C[C@H]2C(=O)N[C@@H](Cc2c[nH]c3ccccc23)C(=O)N[C@@H](CO)C(=O)N[C@@H](Cc2c[nH]c3ccccc23)C(=O)N1C [Example 7025] ({CH2CO}-[2Pal][NMeA]NPHL[Hyp]WSW[NMeNle][NMeNle]RCG-NH2; thioether N-14) | > 30.5 nM | > 74.3 nM |  |
| CCCC[C@H]1C(=O)N(C)[C@@H](CCCC)C(=O)N[C@@H](CCCN)C(=O)N[C@H](C(=O)NCC(N)=O)CSCC(=O)N[C@@H](Cc2ccc(O)cc2)C(=O)N2CC(F)(F)C[C@H]2C(=O)N[C@@H](CC(N)=O)C(=O)N2CCC[C@H]2C(=O)N[C@@H](Cc2cnc[nH]2)C(=O)N[C@@H](CC(C)C)C(=O)N2C[C@H](O)C[C@H]2C(=O)N[C@@H](Cc2c[nH]c3ccccc23)C(=O)N[C@@H](CO)C(=O)N[C@@H](Cc2c[nH]c3ccccc23)C(=O)N1C [Example 1174] | 0.385 to 6.74 nM |  | 0.158 to 4.71 nM |
| CCCC[C@H]1C(=O)N(C)[C@@H](CCCC)C(=O)N[C@@H](CCCNC(=N)N)C(=O)N[C@H](C(=O)NCC(N)=O)CSCC(=O)N[C@@H](Cc2ccc(Cl)c(Cl)c2)C(=O)N(C)[C@@H](C)C(=O)N[C@@H](CC(N)=O)C(=O)N2CCC[C@H]2C(=O)N[C@@H](Cc2cnc[nH]2)C(=O)N[C@@H](CC(C)C)C(=O)N(C)CC(=O)N[C@@H](Cc2c[nH]c3ccccc23)C(=O)N[C@@H](CO)C(=O)N[C@@H](Cc2c[nH]c3ccccc23)C(=O)N1C [Example 1103] ({CH2CO}-[Phe(3,4-Cl2)][NMeA]NPHL[Sar]WSW[NMeNle][NMeNle]RCG-NH2; thioether N-14) | 6.76 to 30.3 nM |  | 4.78 to 72.9 nM |
| CCCC[C@H]1C(=O)N[C@@H](C)C(=O)NC(C(=O)NCC(N)=O)CSCC(=O)N[C@@H](Cc2ccc(O)cc2)C(=O)N(C)[C@@H](C)C(=O)N[C@@H](CC(N)=O)C(=O)N2CCC[C@H]2C(=O)N[C@@H](CN)C(=O)N[C@@H](CC(C)C)C(=O)N2CCC[C@H]2C(=O)N[C@@H](Cc2c[nH]c3ccccc23)C(=O)N[C@@H](CO)C(=O)N[C@@H](Cc2csc3ccccc23)C(=O)N(C)[C@@H](CCSC)C(=O)N1C (some centres unmarked) [Example 9094] ({CH2CO}-Y[NMeA]NP[Dap]LPWS[Bta][NMeM][NMeNle]A[ξC]G-NH2; thioether N-14) | 0.385 to 6.74 nM | 4.78 to 72.9 nM |  |
| CCCC[C@H]1C(=O)N(C)[C@@H](CCCC)C(=O)N[C@@H](CCCNC(=N)N)C(=O)N[C@H](C(=O)NCC(N)=O)CSCC(=O)N[C@@H](Cc2cc(F)cc(F)c2)C(=O)N(C)[C@@H](C)C(=O)N[C@@H](CC(N)=O)C(=O)N2CCC[C@H]2C(=O)N[C@@H](Cc2cnc[nH]2)C(=O)N[C@@H](CC(C)C)C(=O)N2C[C@H](O)C[C@H]2C(=O)N[C@@H](Cc2c[nH]c3ccccc23)C(=O)N[C@@H](CO)C(=O)N[C@@H](Cc2c[nH]c3ccccc23)C(=O)N1C [Example 7051] ({CH2CO}-[Phe(3,5-F2)][NMeA]NPHL[Hyp]WSW[NMeNle][NMeNle]RCG-NH2; thioether N-14) | 6.76 to 30.3 nM | 4.78 to 72.9 nM |  |
| CCCC[C@H]1C(=O)N(C)[C@@H](CCCC)C(=O)N[C@@H](CCCNC(=N)N)C(=O)N[C@H](C(=O)NCC(N)=O)CSCC(=O)N[C@@H](Cc2ccc(C#N)cc2)C(=O)N(C)[C@@H](C)C(=O)N[C@@H](CC(N)=O)C(=O)N2CCC[C@H]2C(=O)N[C@@H](CN)C(=O)N[C@@H](CC(C)C)C(=O)N2C[C@H](O)C[C@H]2C(=O)N[C@@H](Cc2c[nH]c3ccccc23)C(=O)N[C@@H](CO)C(=O)N[C@@H](Cc2c[nH]c3ccccc23)C(=O)N1C [Example 7038] ({CH2CO}-[Phe(4-CN)][NMeA]NP[Dap]L[Hyp]WSW[NMeNle][NMeNle]RCG-NH2; thioether N-14) | 0.385 to 6.74 nM | 0.158 to 4.71 nM |  |
| CCCC[C@H]1C(=O)N(C)[C@@H](CCCC)C(=O)N[C@@H](CCCNC(=N)N)C(=O)N[C@H](C(=O)NCC(N)=O)CSCC(=O)N[C@@H](Cc2ccc(O)cc2)C(=O)N2CCC[C@H]2C(=O)N[C@@H](CC(N)=O)C(=O)N2CCC[C@H]2C(=O)N[C@@H](Cc2cnc[nH]2)C(=O)N[C@@H](CC(C)C)C(=O)N2CCC[C@H]2C(=O)N[C@@H](Cc2c[nH]c3ccccc23)C(=O)N[C@@H](CO)C(=O)N[C@@H](Cc2c[nH]c3ccccc23)C(=O)N1C [Example 1136] ({CH2CO}-YPNPHLPWSW[NMeNle][NMeNle]RCG-NH2; thioether N-14) | 6.76 to 30.3 nM |  | 4.78 to 72.9 nM |
